Test results reported in US4145554A, “3-Nitropyrazole derivatives” (Eli Lilly and Company, priority 1977, dated 1979).
In brackets after ≈: the same amount, converted by molar mass. Where two headings read alike, the source gives them in different places.

Tests used:
Streptococcus sp. 80 = experiment: in vitro tube dilution test (MIC); format: cell-based
Source text: (§1) Other compounds of our invention have also been tested in the tube dilution test and shown to have in vitro activity against a number of microorganisms. The table below reports tests of a number of exemplary compounds against exemplary microorganisms. The compounds are identified by their numbers in the listing above. The data are reported as the MIC in micrograms per milliliter against the named exemplary microorganisms.

Vibrio coli 3811 = experiment: in vitro tube dilution test (MIC); format: cell-based; details: Campylobacter coli
Source text: (§2) The other preferred compounds of our invention have also been thoroughly tested in the in vitro tube dilution test.
as §1

Salmonella dublin = experiment: in vitro tube dilution test (MIC); format: cell-based; details: Salmonella enterica
Source text: as §2, §1

[1] = test system: Staphylococcus aureus sp. 1130; experiment: in vitro tube dilution test (MIC); format: cell-based
Source text: as §2, §1

Pasteurella multocida = experiment: in vitro tube dilution test (MIC); format: cell-based
Source text: (§3) Our compound, 1-(2-hydroxyethyl)-3-nitro-4-pyrazolecarboxamide, has been extensively tested in vitro to determine the range of microorganisms against which it is active. The table of data below reports the minimum inhibitory concentration (MIC) at which the compound is effective in controlling a variety of microorganisms in a standard tube dilution test system. The MIC is reported as micrograms of compound per milliliter.
as §2, §1

Mycoplasma gallisepticum = experiment: in vitro tube dilution test (MIC); format: cell-based; details: Mycoplasmoides gallisepticum
Source text: as §3, §1

Escherichia coli = experiment: in vitro tube dilution test (MIC); format: cell-based
Source text: as §3, §1

Salmonella typhimurium = experiment: Salmonellosis in chickens, single injection to day-old chicks; format: in vivo; details: Salmonella enterica, TYPHIMURIUM, 168 h; single injection of 60 mg./kg.; seven days; read-out: Survival (converted)
Protocol: A number of our 3-nitropyrazoles have been tested against an induced infection of Salmonella typhimurium in day-old chicks. The test was conducted by administering a single injection of 60 mg./kg. of the compounds to each of five chicks. The following day, the chicks were challenged by the subcutaneous injection of a dispersion of S. typhimurium organisms sufficient to kill most or all of the untreated control chicks.
Some of the compounds were tested more than once, in which instances the data are reported as the total survivors from the multiple treatment groups. Untreated, challenged control groups of chicks were tested together with each batch of groups of chicks to which test compounds were administered. Since the mortality of the untreated control chicks varied somewhat from one group of tests to another, results of the untreated control groups are reported below with each test.

[2] = Streptococcus sp. 80, tube dilution, read-out: MIC
[3] = Vibrio coli 3811, tube dilution, read-out: MIC
[4] = Salmonella dublin, tube dilution, read-out: MIC
[5] = Staphylococcus aureus sp. 1130, tube dilution, read-out: MIC
[6] = Mycoplasma gallisepticum, tube dilution, read-out: MIC

SMILES | MIC (Streptococcus sp. 80; [2]) [µg/mL] | MIC (Vibrio coli 3811; [3]) [µg/mL] | MIC (Salmonella dublin; [4]) [µg/mL] | MIC [1, 5] [µg/mL] | MIC (Pasteurella multocida; tube dilution, read-out: MIC) [µg/mL] | MIC (Mycoplasma gallisepticum; [6]) [µg/mL] | MIC (Escherichia coli; tube dilution, read-out: MIC) [µg/mL] | MIC (Streptococcus sp. 80; Streptococcus, SP.80) [µg/mL] | MIC (Vibrio coli 3811; 3811) [µg/mL] | MIC (Salmonella dublin) [µg/mL] | MIC ([1]; Staphylococcus aureus, SP.1130) [µg/mL] | MIC (Pasteurella multocida) [µg/mL] | MIC (Mycoplasma gallisepticum) [µg/mL] | MIC (Escherichia coli) [µg/mL] | responders at 60 mg/kg (Salmonella typhimurium) [%]
NC(=O)c1cn(-c2ccc([N+](=O)[O-])cc2)nc1[N+](=O)[O-] [Compound 5, 3-nitro-1-(4-nitrophenyl)-4-pyrazolecarboxamide] | – | – | – | – | – | – | – | > 50 | 6.25 (≈ 22.5 µM) | > 50 | 3.12 (≈ 11.3 µM) | 3.12 (≈ 11.3 µM) | 25 (≈ 90.2 µM) | > 50 | –
CCCn1cc(C(N)=O)c([N+](=O)[O-])n1 [Compound 38, 3-nitro-1-propyl-4-pyrazolecarboxamide] | – | – | – | – | – | – | – | – | – | – | – | – | – | – | 80
N#Cc1cn(-c2ncc([N+](=O)[O-])s2)nc1[N+](=O)[O-] [Compound 68, 3-nitro-1-(5-nitro-2-thiazolyl)-4-pyrazolecarbonitrile] | – | – | – | – | – | – | – | 50 (≈ 188 µM) | 12.5 (≈ 47 µM) | 50 (≈ 188 µM) | 25 (≈ 93.9 µM) | 12.5 (≈ 47 µM) | 25 (≈ 93.9 µM) | 50 (≈ 188 µM) | –
CC(O)Cn1cc(C(N)=O)c([N+](=O)[O-])n1 (stereo not drawn) [Compound 69, 1-(2-hydroxypropyl)-3-nitro-4-pyrazolecarboxamide] | – | – | – | – | – | – | – | – | – | – | – | – | – | – | 100
N#Cc1cn(Cc2ccccc2)nc1[N+](=O)[O-] [Compound 70, 1-benzyl-3-nitro-4-pyrazolecarbonitrile] | 100 (≈ 438 µM) | 12.5 (≈ 54.8 µM) | 100 (≈ 438 µM) | 100 (≈ 438 µM) | – | > 50 | 100 (≈ 438 µM) | – | – | – | – | – | – | – | –
Cn1cc(C(=O)NN=Cc2ccc([N+](=O)[O-])o2)c([N+](=O)[O-])n1 [Compound 74, 1-methyl-3-nitro-4-pyrazolecarboxylic acid, 5-nitrofurfurylidene hydrazide] | – | – | – | – | – | – | – | 50 (≈ 162 µM) | 0.39 (≈ 1.27 µM) | 12.5 (≈ 40.6 µM) | 1.56 (≈ 5.06 µM) | – | 0.78 (≈ 2.53 µM) | 6.25 (≈ 20.3 µM) | –
Cc1ccc(C(=O)OCCn2cc(C(N)=O)c([N+](=O)[O-])n2)cc1 [Compound 76, [2-(4-carbamoyl-3-nitropyrazol-1-yl)ethyl] p-toluate] | – | – | – | – | – | – | – | – | – | – | – | – | – | – | 100
CCOC(=O)OCCn1cc(C(N)=O)c([N+](=O)[O-])n1 [Compound 78, [2-(4-carbamoyl-3-nitropyrazol-1-yl)ethyl] ethyl carbonate] | – | – | – | – | – | – | – | – | – | – | – | – | – | – | 40
N#Cc1cn(-c2ccc([N+](=O)[O-])cc2)nc1[N+](=O)[O-] [Compound 92, 3-nitro-1-(4-nitrophenyl)-4-pyrazolecarbonitrile] | – | – | – | – | – | – | – | 50 (≈ 193 µM) | 6.25 (≈ 24.1 µM) | > 50 | 6.25 (≈ 24.1 µM) | 0.78 (≈ 3.01 µM) | 12.5 (≈ 48.2 µM) | > 50 | –
O=C(NN=Cc1ccc([N+](=O)[O-])o1)c1cn(CCO)nc1[N+](=O)[O-] [Compound 94, 1-(2-hydroxyethyl)-3-nitropyrazole-4-carboxylic acid, 5-nitrofurfurylidene hydrazide] | – | – | – | – | – | – | – | 25 (≈ 73.9 µM) | < 1.56 | 25 (≈ 73.9 µM) | 6.25 (≈ 18.5 µM) | < 1.56 | 6.25 (≈ 18.5 µM) | 25 (≈ 73.9 µM) | –
NC(=O)c1cn(-c2ncc([N+](=O)[O-])s2)nc1[N+](=O)[O-] [Compound 95, 3-nitro-1-(5-nitro-2-thiazolyl)pyrazole-4-carboxamide] | – | – | – | – | – | – | – | 50 (≈ 176 µM) | < 1.56 | 25 (≈ 88 µM) | < 1.56 | 3.12 (≈ 11 µM) | 12.5 (≈ 44 µM) | > 50 | –
NC(=O)c1cn(CCOC(=O)c2ccc(Cl)c(Cl)c2)nc1[N+](=O)[O-] [Compound 98, 2-(4-carbamoyl-3-nitropyrazol-1-yl)ethyl 3,4-dichlorobenzoate] | – | – | – | – | – | – | – | – | – | – | – | – | – | – | 100
NC(=O)c1cn(CCOC(=O)c2cccc(Cl)c2)nc1[N+](=O)[O-] [Compound 99, 2-(4-carbamoyl-3-nitropyrazol-1-yl)ethyl m-chlorobenzoate] | – | – | – | – | – | – | – | – | – | – | – | – | – | – | 80

The next lines start with results.

MIC (Streptococcus sp. 80; [2]) [µg/mL] | MIC (Vibrio coli 3811; [3]) [µg/mL] | MIC (Salmonella dublin; [4]) [µg/mL] | MIC [1, 5] [µg/mL] | MIC (Pasteurella multocida; tube dilution, read-out: MIC) [µg/mL] | MIC (Mycoplasma gallisepticum; [6]) [µg/mL] | MIC (Escherichia coli; tube dilution, read-out: MIC) [µg/mL] | SMILES | MIC (Streptococcus sp. 80; Streptococcus, SP.80) [µg/mL] | MIC (Vibrio coli 3811; 3811) [µg/mL] | MIC (Salmonella dublin) [µg/mL] | MIC ([1]; Staphylococcus aureus, SP.1130) [µg/mL] | MIC (Pasteurella multocida) [µg/mL] | MIC (Mycoplasma gallisepticum) [µg/mL] | MIC (Escherichia coli) [µg/mL] | responders at 60 mg/kg (Salmonella typhimurium) [%]
> 50 | 6.25 (≈ 35.5 µM) | 50 (≈ 284 µM) | > 50 | 12.5 (≈ 71 µM) | 50 (≈ 284 µM) | 50 (≈ 284 µM) | C#CCn1cc(C#N)c([N+](=O)[O-])n1 [Compound 4, 1-propargyl-3-nitro-4-pyrazolecarbonitrile] | – | – | – | – | – | – | – | –
6.25 (≈ 19 µM) | 50 (≈ 152 µM) | > 50 | 6.25 (≈ 19 µM) | 25 (≈ 75.9 µM) | 50 (≈ 152 µM) | 50 (≈ 152 µM) | NC(=O)c1cn(CCN2C(=O)c3ccccc3C2=O)nc1[N+](=O)[O-] [Compound 10, 1-(2-phthalimidoethyl)-3-nitro-4-pyrazolecarboxamide] | – | – | – | – | – | – | – | –
100 (≈ 657 µM) | 100 (≈ 657 µM) | 100 (≈ 657 µM) | 100 (≈ 657 µM) | – | 50 (≈ 329 µM) | 100 (≈ 657 µM) | Cn1cc(C#N)c([N+](=O)[O-])n1 [Compound 30, 1-methyl-3-nitro-4-pyrazolecarbonitrile] | – | – | – | – | – | – | – | –
50 (≈ 258 µM) | 12.5 (≈ 64.4 µM) | 50 (≈ 258 µM) | 50 (≈ 258 µM) | – | 50 (≈ 258 µM) | 50 (≈ 258 µM) | N#Cc1cn(CC2CO2)nc1[N+](=O)[O-] (stereo not drawn) [Compound 31, 1-(2,3-epoxypropyl)-3-nitro-4-pyrazolecarbonitrile] | – | – | – | – | – | – | – | –
> 50 | 50 (≈ 177 µM) | > 50 | 25 (≈ 88.5 µM) | 0.39 (≈ 1.38 µM) | 50 (≈ 177 µM) | > 50 | CCCCCCCCCn1cc(C(N)=O)c([N+](=O)[O-])n1 [Compound 48, 3-nitro-1-nonyl-4-pyrazolecarboxamide] | – | – | – | – | – | – | – | –
> 50 | > 50 | > 50 | > 50 | 25 (≈ 160 µM) | 50 (≈ 320 µM) | > 50 | NC(=O)c1c[nH]nc1[N+](=O)[O-] [Compound 60, 3(5)-nitro-4-pyrazolecarboxamide] | – | – | – | – | – | – | – | –
50 (≈ 197 µM) | 50 (≈ 197 µM) | 50 (≈ 197 µM) | 50 (≈ 197 µM) | 25 (≈ 98.3 µM) | 50 (≈ 197 µM) | 50 (≈ 197 µM) | CCOC(Cn1cc(C#N)c([N+](=O)[O-])n1)OCC [Compound 67, 1-(2,2-diethoxyethyl)-3-nitro-4-pyrazolecarbonitrile] | – | – | – | – | – | – | – | –
> 50 | > 50 | > 50 | > 50 | > 50 | > 50 | > 50 | CCSCCn1cc(C#N)c([N+](=O)[O-])n1 [Compound 72, 1-(2-ethylthioethyl)-3-nitro-4-pyrazolecarbonitrile] | – | – | – | – | – | – | – | –
50 (≈ 262 µM) | 25 (≈ 131 µM) | 50 (≈ 262 µM) | 50 (≈ 262 µM) | 12.5 (≈ 65.4 µM) | 50 (≈ 262 µM) | 50 (≈ 262 µM) | N#CCCn1cc(C#N)c([N+](=O)[O-])n1 [Compound 73, 4-cyano-3-nitro-1-pyrazolepropionitrile] | – | – | – | – | – | – | – | –
> 50 | 25 (≈ 96.8 µM) | > 50 | > 50 | > 50 | 50 (≈ 194 µM) | > 50 | CCS(=O)(=O)CCn1cc(C#N)c([N+](=O)[O-])n1 [Compound 86, 1-(2-ethylsulfonyethyl)-3-nitro-4-pyrazolecarbonitrile] | – | – | – | – | – | – | – | –
50 (≈ 204 µM) | 12.5 (≈ 51 µM) | > 50 | > 50 | 12.5 (≈ 51 µM) | > 50 | > 50 | N#Cc1cn(CCBr)nc1[N+](=O)[O-] [Compound 91, 1-(2-bromoethyl)-3-nitro-4-pyrazolecarbonitrile] | – | – | – | – | – | – | – | –
> 50 | 12.5 (≈ 54.3 µM) | > 50 | > 50 | 25 (≈ 109 µM) | 25 (≈ 109 µM) | > 50 | CSCCn1cc(C(N)=O)c([N+](=O)[O-])n1 [Compound 97, 1-[2-(methylthio)ethyl]-3-nitropyrazole-4-carboxamide] | – | – | – | – | – | – | – | –
